# Experimental data from patent US20250263404A1, “AMINOPYRIDINES AS ACTIVATORS OF PI3 KINASE” (UCL Business Ltd, priority 2021, published 2025).
# Biological target: PI3Kα (Homo sapiens, UniProt P42336)
# Experiment: pAKT S473 ELISA in A549 cells (PI3Kα activation)
# Type: cell-based
# Set-up: endogenous in cells; host or cells: A549
# Conditions: for EC50: A549 cells, 15 min treatment, pAKT S473 ELISA, normalised to Emax of 1 μM insulin, read-out: Av EC50; for Emax at 10 µM: A549, 0.25 h, read-out: <50% response at 10 μM
# Protocol: EC50 values were determined by quantifying phosphorylation on S473 residues of Akt in A549 human adenocarcinoma cells by ELISA (enzyme linked immunoadsorbent assay, R&D Systems, DYC887BE). A549 cells were seeded into 96-well plates (50,000 cells/well) in DMEM supplemented with 10% foetal bovine serum and 1% penicillin-streptomyocin. Following 24 h in culture cells were starved for 24 h in serum-free DMEM before 15 minute treatment with a concentration response curve of compounds. Experimental compounds were diluted in DMSO into […] 1:3 concentration response curves in polypropylene V-bottom plates (SLS MIC9050). Concentration response curves were diluted to a 3× stock in serum-free DMEM. Standard 8-point concentration response curves were performed at 50, 16.7, 5.6, 1.9, 0.6, 0.2, 0.07, 0.02 μM and serum-free DMEM containing 0.5% DMSO was used as a negative control. […] A549 cells were seeded at 50,000 cells per well in 96-well plates in DMEM (10% FBS+1% P/S). The next day cells were washed once with PBS before addition of serum-free DMEM for 24 h. On the day of treatment cells, were incubated in fresh serum-free DMEM prior to treatment. Compounds solubilised to 10 mM in DMSO were diluted 1:3 in an 8-point concentration response curve in DMSO. Concentration response curves were diluted in serum-free DMEM by transfer into intermediate plates using a BRAVO liquid handler (Agilent). Intermediate plates were then used to treat cell plates using the BRAVO liquid handler. Compound concentration response curves had atop concentration of 50 μM and a final well concentration of 0.5% DMSO. Cell plates were treated for 15 min at 37° C., 5% CO2 before being washed with ice-cold PBS and lysed in lysis buffer 6 (R&D Systems #895561) and freezing at −80° C. Levels of pAKT-S473 were determined using the phospho-AKT (S473) pan-specific Duoset IC ELISA (R&D Systems #DYC887BE) in 96-well white high-binding plates (Corning #3922) according to manufacturer's instructions. Endpoint luminescence was measured using a Sense (Hidex) platereader. […] Data were transformed and EC50 data were determined by variable slope (4 parameters) non-linear regression using Prism 7 (Graphpad).
# Chain of PI3Kα (P42336 whole entry): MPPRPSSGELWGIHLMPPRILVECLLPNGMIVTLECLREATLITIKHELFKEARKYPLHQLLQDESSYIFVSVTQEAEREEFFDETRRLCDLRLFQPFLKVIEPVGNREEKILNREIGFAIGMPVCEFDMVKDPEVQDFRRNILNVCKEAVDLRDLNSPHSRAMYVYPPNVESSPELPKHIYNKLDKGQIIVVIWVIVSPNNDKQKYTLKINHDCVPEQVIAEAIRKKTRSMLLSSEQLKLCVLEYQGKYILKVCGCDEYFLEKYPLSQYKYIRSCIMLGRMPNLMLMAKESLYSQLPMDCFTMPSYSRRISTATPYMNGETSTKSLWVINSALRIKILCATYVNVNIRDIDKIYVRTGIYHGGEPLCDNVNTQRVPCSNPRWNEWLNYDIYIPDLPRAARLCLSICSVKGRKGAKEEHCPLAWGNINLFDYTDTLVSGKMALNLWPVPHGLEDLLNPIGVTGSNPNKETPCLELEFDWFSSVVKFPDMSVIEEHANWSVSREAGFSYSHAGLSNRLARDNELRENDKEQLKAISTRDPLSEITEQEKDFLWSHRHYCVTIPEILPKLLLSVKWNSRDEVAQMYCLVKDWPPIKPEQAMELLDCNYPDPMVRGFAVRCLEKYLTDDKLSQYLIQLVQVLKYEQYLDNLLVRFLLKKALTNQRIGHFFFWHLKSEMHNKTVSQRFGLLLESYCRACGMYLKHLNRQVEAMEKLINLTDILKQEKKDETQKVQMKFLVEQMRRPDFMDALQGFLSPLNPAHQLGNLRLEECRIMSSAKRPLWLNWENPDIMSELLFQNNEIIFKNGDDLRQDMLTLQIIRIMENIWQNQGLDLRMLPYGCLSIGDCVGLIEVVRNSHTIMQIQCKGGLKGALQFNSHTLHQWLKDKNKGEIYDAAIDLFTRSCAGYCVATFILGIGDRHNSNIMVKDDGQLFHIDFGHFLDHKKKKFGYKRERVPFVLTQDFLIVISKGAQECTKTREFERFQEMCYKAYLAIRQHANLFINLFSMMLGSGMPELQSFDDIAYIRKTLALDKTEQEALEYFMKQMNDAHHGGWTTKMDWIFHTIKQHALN
# Chain of PI3Kα (P27986 whole entry partner): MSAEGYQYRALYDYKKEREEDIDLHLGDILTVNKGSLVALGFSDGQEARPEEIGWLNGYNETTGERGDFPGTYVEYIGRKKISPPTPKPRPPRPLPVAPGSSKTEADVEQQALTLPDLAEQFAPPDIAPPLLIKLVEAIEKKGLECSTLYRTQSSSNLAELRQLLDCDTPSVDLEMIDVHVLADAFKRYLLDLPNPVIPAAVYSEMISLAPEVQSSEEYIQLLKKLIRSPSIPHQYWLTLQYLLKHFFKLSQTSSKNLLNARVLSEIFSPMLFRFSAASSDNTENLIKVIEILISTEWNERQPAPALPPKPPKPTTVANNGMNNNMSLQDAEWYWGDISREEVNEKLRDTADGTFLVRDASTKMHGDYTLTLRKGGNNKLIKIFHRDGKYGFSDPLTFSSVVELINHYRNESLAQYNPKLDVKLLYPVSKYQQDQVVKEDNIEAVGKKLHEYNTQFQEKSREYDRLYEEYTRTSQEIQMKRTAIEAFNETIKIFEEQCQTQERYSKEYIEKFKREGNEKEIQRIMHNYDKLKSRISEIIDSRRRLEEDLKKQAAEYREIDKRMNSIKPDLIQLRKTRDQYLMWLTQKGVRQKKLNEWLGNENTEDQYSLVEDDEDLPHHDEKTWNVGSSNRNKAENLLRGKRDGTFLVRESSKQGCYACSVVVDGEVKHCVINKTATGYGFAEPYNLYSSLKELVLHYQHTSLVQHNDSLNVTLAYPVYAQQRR
EC50 [µM],Emax at 10 µM [%],SMILES
> 50,,COc1cc(N2CCN(Cc3ccc(C)cc3)CC2)ccc1Nc1cc(Nc2cccc3c2N(C(C)=O)CC3)ccn1 [26 (1993)]
> 50,,C#Cc1cccc(Nc2cc(Nc3cccc4c3N(C(C)=O)CC4)ccn2)c1 [69 (2069)]
2.08,< 50,COc1cc(Nc2cc(Nc3cnn(C)c3)ccn2)cc(OC)c1OC [4 (1905)]
3.08,,COc1cc(N2CCN(C)CC2)ccc1Nc1nccc(Nc2cccc3c2N(C(C)=O)CC3)c1F [18 (1951)]
> 50,< 50,CCN1CCN(c2ccc(Nc3cccc(Nc4cccc5c4N(C(C)=O)CC5)c3)cc2)CC1 [99 (2346)]
> 50,,CC(=O)N1CCc2cccc(Nc3ccnc(Nc4cc5ccccc5cn4)c3)c21 [44 (2021)]
1.76,< 50,CNC(=O)c1cccc(Nc2cc(Nc3cccc4c3N(C(C)=O)CC4)ccn2)c1 [47 (2026)]
7.85,,CC(=O)N1CCc2cccc(Nc3ccnc(Nc4cccc(N5CCN(C)CC5)c4)c3)c21 [22 (1968)]
4.97,,CC(=O)N1CCc2cccc(Nc3ccnc(Nc4ccc(C(N)=O)cc4)c3)c21 [35 (2011)]
> 50,,CC(=O)N1CCc2cccc(Nc3ccnc(Nc4ccc(-c5ccccc5)cn4)c3)c21 [74 (2079)]
0.39,< 50,CC(=O)N1CCc2cccc(Nc3ccnc(Nc4cc(C(C)C)nn4C)c3)c21 [70 (2070)]
> 50,< 50,CNC(=O)c1ccc(Nc2cc(Nc3cc(C(C)C)nn3C)ccn2)cc1 [90 (2117)]
4.78,,COCC(=O)N1CCc2cccc(Nc3ccnc(Nc4ccc(N5CCN(C)CC5)cc4OC)c3)c21 [17 (1950)]
> 50,< 50,COc1cc(N2CCN(C)CC2)ccc1Nc1cc(Nc2cccc3[nH]ccc23)ccn1 [63 (2057)]
0.84,< 50,COc1cc(Nc2cc(Nc3ccc4c(c3)N(C(C)=O)CC4)ccn2)cc(OC)c1OC [6 (1907)]
1.46,,CC(=O)N1CCc2cccc(Nc3ccnc(Nc4ccc(N5CCN(C)CC5)cc4OC(C)C)c3)c21 [32 (2008)]

EC50 [µM],Emax at 10 µM [%],SMILES
6.54,< 50,CC(=O)N1CCc2cccc(Nc3ccnc(Nc4cccc5ccncc45)c3)c21 [71 (2071)]
> 50,,CC(=O)N1CCc2cccc(Nc3ccnc(Nc4ccccc4)c3)c21 [39 (2016)]
1.36,,COc1cc(N2CCN(C)CC2)ccc1Nc1cc(Nc2ccnc3ccccc23)ccn1 [50 (2029)]
2.55,,COc1cc(N2CCN(C)CC2)ccc1Nc1cc(Nc2cccc3c2N(C(C)=O)CC3)ccn1 [R4 (1889)]
> 10.4,,CC(=O)N1CCc2cccc(Nc3ccnc(Nc4ccc(C(=O)N5CCOCC5)cc4)c3)c21 [92 (2348)]
4.89,,COc1cc(N2CCN(C)CC2)ccc1Nc1cc(Nc2cc(C(C)C)nn2C)ccn1 [30 (2000)]
> 0.505,< 50,COc1cc(N2CC3(COC3)C2)ccc1Nc1cc(Nc2cccc3c2N(C(C)=O)CC3)ccn1 [96 (2353)]
> 50,,CC(=O)N1CCc2cccc(Nc3ccnc(Nc4ccc(OCc5ccccc5)cc4)c3)c21 [37 (2014)]
5.23,,COCCOc1cc(N2CCN(C)CC2)ccc1Nc1cc(Nc2cccc3c2N(C(C)=O)CC3)ccn1 [33 (2009)]
9.71,,COc1cc(N2CCN(C)CC2)ccc1Nc1cc(Nc2ccn(C)n2)ccn1 [3 (1904)]
> 50,,CC(=O)N1CCc2cccc(Nc3ccnc(Nc4ccc(N5CCN(C)CC5)cc4C(F)(F)F)c3)c21 [25 (1992)]
0.44,< 50,COc1cc(Nc2cc(Nc3ccc4c(c3)CCN4C(C)=O)ccn2)cc(OC)c1OC [5 (1906)]
4.78,< 50,COc1ccccc1Nc1cc(Nc2cccc3c2N(C(C)=O)CC3)ccn1 [99 (2356)]
1.55,,COc1ccc(S(C)(=O)=O)cc1Nc1cc(Nc2cccc3c2N(C(C)=O)CC3)ccn1 [R1 (1888)]
> 50,< 50,CC(=O)N1CCc2cc(Nc3cc(Nc4cccc(S(C)(=O)=O)c4)ccn3)ccc21 [88 (2115)]
